# Target: T1, PRC2 complex (EZH2 Y641F/EED/SUZ12/RbAp48/AEBP2) histone methyltransferase (Homo sapiens, UniProt Q15910, Y641F)
# T1 construct: purchased Cisbio
# Test: PRC2 complex (EZH2 Y641F) activity assay, HTRF
# Assay type: biochemical
# Settings: H3(1-50) K27me1 substrate, SAM, 4 h at room temperature, read-out: IC50 (EZH2_Y641F)
# Description: PRC2 Complex (Ezh2y641f) Activity Assay of the Compounds:
# Test Method: Homogeneous Time-Resolved Fluorescence (HTRF)
# Materials: PRC2 complex (EZH2 Y641F/EED/SUZ12/RbAp48/AEBP2) histone methyltransferase used in the test was purchased from Cisbio; substrate H3(1-50) K27me1 was a product of GL Biochem; methyl donor S-(5′-Adenosyl)-L-methionine chloride dihydrochloride (SAM) was purchased from Sigma-aldrich; Eu-labeled H3K27me3, Streptavidin-XL665 and the buffer used in the test were purchased from Cisbio.
# Experiment method: PRC2 complex (EZH2 Y641F/EED/SUZ12/RbAp48/AEBP2), H3(1-50)me1 substrate, methyl donor SAM and the test compound were added to each well to reach a total of 10 μL reaction system and reacted in dark at room temperature for 4h. 5 μL of Eu-labeled H3K27 Me3 antibody and 5 μL of Streptavidin-XL665 were added to each well, mixed uniformly, and incubated at room temperature for 1 h. The fluorescence values at 620 nm and 665 nm were measured with a multi-label microplate analysis system (PerkinElmer Envision), and the HTRF signal ratio (665 nm/620 nm) was calculated for each well. The IC50 values of the compounds were calculated using SoftMax Pro 5.4.1 software.
# T1 sequence (Q15910 whole entry Y641F): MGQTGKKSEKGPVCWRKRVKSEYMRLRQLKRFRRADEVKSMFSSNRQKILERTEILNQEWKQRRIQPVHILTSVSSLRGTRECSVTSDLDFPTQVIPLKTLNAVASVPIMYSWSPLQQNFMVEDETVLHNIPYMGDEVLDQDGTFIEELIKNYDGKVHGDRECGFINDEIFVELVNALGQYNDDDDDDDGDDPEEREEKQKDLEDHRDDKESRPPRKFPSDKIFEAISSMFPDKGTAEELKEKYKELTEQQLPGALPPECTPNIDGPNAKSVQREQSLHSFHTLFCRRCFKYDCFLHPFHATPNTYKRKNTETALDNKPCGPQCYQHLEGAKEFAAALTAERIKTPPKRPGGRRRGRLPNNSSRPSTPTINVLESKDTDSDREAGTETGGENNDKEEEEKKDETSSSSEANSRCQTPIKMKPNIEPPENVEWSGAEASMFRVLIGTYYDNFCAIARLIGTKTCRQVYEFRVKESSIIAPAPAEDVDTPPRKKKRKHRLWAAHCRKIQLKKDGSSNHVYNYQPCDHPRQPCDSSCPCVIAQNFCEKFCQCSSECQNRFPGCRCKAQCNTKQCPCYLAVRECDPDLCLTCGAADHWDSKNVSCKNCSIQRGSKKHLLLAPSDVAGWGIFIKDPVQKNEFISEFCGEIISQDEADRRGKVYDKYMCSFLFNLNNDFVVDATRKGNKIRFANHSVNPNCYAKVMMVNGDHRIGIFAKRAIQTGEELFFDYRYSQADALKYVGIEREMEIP
# T1 sequence (O75530 whole entry partner): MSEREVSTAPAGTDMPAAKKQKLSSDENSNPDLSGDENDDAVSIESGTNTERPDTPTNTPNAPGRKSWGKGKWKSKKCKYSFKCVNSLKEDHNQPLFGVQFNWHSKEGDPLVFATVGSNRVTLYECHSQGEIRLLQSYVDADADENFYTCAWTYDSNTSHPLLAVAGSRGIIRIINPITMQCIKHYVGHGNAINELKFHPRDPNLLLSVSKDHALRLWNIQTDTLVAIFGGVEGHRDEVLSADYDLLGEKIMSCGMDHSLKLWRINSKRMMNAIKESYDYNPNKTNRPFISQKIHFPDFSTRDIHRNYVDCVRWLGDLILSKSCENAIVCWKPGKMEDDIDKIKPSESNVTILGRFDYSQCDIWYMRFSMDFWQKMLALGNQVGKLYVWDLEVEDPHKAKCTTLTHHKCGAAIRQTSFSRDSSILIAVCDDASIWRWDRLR
# T1 sequence (Q15022 whole entry partner): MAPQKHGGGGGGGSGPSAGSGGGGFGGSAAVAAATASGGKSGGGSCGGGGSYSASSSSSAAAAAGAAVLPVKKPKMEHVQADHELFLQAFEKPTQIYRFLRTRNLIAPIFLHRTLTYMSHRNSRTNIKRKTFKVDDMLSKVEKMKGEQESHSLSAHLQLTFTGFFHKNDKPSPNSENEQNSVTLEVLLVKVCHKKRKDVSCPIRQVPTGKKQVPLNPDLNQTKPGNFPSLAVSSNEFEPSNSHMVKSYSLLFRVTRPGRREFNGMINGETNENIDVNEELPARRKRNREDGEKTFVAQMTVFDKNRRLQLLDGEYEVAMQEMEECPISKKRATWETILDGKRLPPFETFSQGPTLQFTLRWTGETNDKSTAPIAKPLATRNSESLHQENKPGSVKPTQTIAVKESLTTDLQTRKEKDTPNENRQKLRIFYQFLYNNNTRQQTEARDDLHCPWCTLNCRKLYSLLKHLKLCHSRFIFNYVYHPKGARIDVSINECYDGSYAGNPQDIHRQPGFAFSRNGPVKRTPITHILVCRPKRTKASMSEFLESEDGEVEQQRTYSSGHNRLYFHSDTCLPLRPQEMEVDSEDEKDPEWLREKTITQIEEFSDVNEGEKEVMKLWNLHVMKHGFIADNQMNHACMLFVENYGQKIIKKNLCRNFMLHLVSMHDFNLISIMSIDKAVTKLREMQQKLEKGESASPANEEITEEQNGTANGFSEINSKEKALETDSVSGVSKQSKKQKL
# T1 sequence (Q09028 whole entry partner): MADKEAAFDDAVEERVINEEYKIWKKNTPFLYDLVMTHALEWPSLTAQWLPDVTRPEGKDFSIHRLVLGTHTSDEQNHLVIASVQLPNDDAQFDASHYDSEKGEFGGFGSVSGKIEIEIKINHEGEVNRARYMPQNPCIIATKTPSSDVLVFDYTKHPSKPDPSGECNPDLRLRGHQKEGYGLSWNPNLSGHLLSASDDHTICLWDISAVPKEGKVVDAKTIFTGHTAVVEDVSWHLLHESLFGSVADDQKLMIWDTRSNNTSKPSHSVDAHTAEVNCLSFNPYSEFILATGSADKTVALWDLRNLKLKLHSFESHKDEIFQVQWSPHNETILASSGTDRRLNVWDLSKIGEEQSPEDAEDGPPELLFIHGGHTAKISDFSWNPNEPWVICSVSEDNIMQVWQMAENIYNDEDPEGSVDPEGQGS
# T1 sequence (Q6ZN18 whole entry partner): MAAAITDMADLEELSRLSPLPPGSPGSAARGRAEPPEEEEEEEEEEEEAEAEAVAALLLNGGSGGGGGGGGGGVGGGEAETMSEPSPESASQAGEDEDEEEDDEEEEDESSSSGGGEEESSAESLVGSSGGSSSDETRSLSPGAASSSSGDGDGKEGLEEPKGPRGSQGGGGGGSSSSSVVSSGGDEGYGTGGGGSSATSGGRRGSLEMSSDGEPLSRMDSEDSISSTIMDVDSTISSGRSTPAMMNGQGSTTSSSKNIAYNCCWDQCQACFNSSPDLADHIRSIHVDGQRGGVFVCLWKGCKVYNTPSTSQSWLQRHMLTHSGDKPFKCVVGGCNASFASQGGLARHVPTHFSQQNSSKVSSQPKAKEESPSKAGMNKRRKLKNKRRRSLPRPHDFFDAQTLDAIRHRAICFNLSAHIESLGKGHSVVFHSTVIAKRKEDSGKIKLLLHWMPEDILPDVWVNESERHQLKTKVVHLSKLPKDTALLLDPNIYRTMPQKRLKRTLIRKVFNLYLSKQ
row,IC50,SMILES
1,4.91 nM,"C=C(c1c(C)c(C(=O)NCc2c(OC)cc(C)[nH]c2=O)cc2c(-c3ccc(C)nn3)ccn12)N1CCN(CC(F)(F)F)CC1 [compound 3, N-((4-methoxy-6-methyl-2-oxo-1,2-dihydropyridin-3-yl)methyl)-6-methyl-1-(6-methylpyridazin-3-yl)-5-(1-(4-(2,2,2-trifluoroethyl)piperazin-1-yl)vinyl)indolizine-7-carboxamide]"
2,8.82 nM,"COc1cc(C)[nH]c(=O)c1CNC(=O)c1cc2c(-c3ccnc(N(C)C)c3)ccn2c(C(C)=C2CCN(CC(F)(F)F)CC2)c1C [compound 4, 1-(2-(dimethylamino)pyridin-4-yl)-N-((4-methoxy-6-methyl-2-oxo-1,2-dihydropyridine-3-yl)methyl)-6-methyl-5-(1-(1-(2,2,2-trifluoroethyl)piperidin-4-alkenylene)ethyl)indolizine-7-formamide]"
3,11.4 nM,"CC=C(c1c(C)c(C(=O)NCc2c(OC)cc(C)[nH]c2=O)cc2c(-c3ccnc(N(C)C)c3)ccn12)N1CCOCC1 [compound 1, 1-(2-(dimethylamino)pyridin-4-yl)-N-((4-methoxy-6-methyl-2-oxo-1,2-dihydropyridin-3-yl)methyl)-6-methyl-5-(1-morpholinylpropyl-1-en-1-yl)indolizine-7-formamide]"
4,6.73 nM,"CNc1cc(-c2ccn3c(C(C)=C4CCN(CC(F)(F)F)CC4)c(C)c(C(=O)NCc4c(OC)cc(C)[nH]c4=O)cc23)ccn1 [compound 5, N-((4-methoxy-6-methyl-2-oxo-1,2-dihydropyridin-3-yl)methyl)-6-methyl-1-(2-(methylamino)pyridin-4-yl)-5-(1-(1-(2,2,2-trifluoroethyl)piperidin-4-alkenylene)ethyl)indolizine-7-carboxamide]"

# — patent US11661421B2, “Indolizine compounds, preparation method and use thereof” (HAIHE BIOPHARMA CO., LTD., priority 2018, dated 2023)
